# Where two headings read alike, the source gives them in different places.
# Key:
# hOX1R = hOX1R (Homo sapiens, UniProt O43613); assay: hOX1R FLIPR Ca2+ flux assay; type: cell-based
# human orexin-2 receptor = human orexin-2 receptor (Homo sapiens (Human), UniProt O43614); assay: hOX2R FLIPR Ca2+ flux assay; type: cell-based; details: CHO cells expressing human orexin-2 receptor; agonist 70 pM Ala-6,12 orexin-A
# Description: In a typical experiment the OX1 and OX2 receptor antagonistic activity of the compounds of the present invention was determined in accordance with the following experimental method. For intracellular calcium measurements, Chinese hamster ovary (CHO) cells expressing the rat orexin-1 receptor or the human orexin-2 receptor, are grown in Iscove's modified DMEM containing 2 mM L-glutamine, […], 1% hypoxanthine-thymidine supplement, 100 U/ml penicillin, 100 μg/ml streptomycin and 10% heat-inactivated fetal calf serum (FCS). The cells are seeded at 20,000 cells/well into Becton-Dickinson black 384-well clear bottom sterile plates coated with poly-D-lysine. All reagents were from GIBCO-Invitrogen Corp. The seeded plates are incubated overnight at 37° C. and 5% CO2. Ala-6,12 human orexin-A as the agonist is prepared as a 1 mM stock solution in 1% bovine serum albumin (BSA) and diluted in assay buffer (HBSS containing 20 mM HEPES, 0.1% BSA and 2.5 mM probenecid, pH7.4) for use in the assay at a final concentration of 70 pM. Test compounds are prepared as 10 mM stock solution in DMSO, then diluted in 384-well plates, first in DMSO, then assay buffer. On the day of the assay, cells are washed 3 times with 100 μl assay buffer and then incubated for 60 min (37° C., 5% CO2) in 60 μl assay buffer containing […] Fluo-4AM ester, 0.02% pluronic acid, and 1% BSA. The dye loading solution is then aspirated and cells are washed 3 times with 100 μl assay buffer. 30 μl of that same buffer is left in each well. Within the Fluorescent Imaging Plate Reader (FLIPR, Molecular Devices), test compounds are added to the plate in a volume of 25 μl, incubated for 5 min and finally 25 μl of agonist is added. Fluorescence is measured for each well at 1 second intervals for 5 minutes and the height of each fluorescence peak is compared to the height of the fluorescence peak induced by 70 pM Ala-6,12 orexin-A with buffer in place of antagonist. For each antagonist, IC50 value (the concentration of compound needed to inhibit 50% of the agonist response) is determined. Alternatively, compound potency can be assessed by a radioligand binding assay (described in Bergman et. al. Bioorg. Med. Chem. Lett. 2008, 18, 1425-1430) in which the inhibition constant (Ki) is determined in membranes prepared from CHO cells expressing either the OX1 or OX2 receptor. The intrinsic orexin receptor antagonist activity of a compound which may be used in the present invention may be determined by these assays.
# [1] = CHO cells expressing orexin-1 receptor, agonist 70 pM Ala-6,12 orexin-A, read-out: hOX1R FLIPR IC50
# Sequence of human orexin-2 receptor (O43614 whole entry): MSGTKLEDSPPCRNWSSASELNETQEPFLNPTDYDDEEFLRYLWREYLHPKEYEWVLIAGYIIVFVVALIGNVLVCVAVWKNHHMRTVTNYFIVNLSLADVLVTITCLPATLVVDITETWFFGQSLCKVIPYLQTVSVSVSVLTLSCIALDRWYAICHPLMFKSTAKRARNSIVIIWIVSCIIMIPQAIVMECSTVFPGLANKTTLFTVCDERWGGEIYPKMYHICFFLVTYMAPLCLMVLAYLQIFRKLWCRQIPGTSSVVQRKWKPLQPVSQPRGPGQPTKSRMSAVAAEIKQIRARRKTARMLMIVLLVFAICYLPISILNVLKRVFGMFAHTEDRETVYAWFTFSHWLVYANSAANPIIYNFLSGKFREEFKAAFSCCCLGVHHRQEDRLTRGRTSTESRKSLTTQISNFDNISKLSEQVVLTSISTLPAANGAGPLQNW
SMILES,IC50 (hOX1R; [1]) [nM],IC50 (human orexin-2 receptor) [nM],IC50 (hOX1R) [nM]
"Cc1oc(C[C@H]2CCCCN2C(=O)c2cccnc2OCC(F)(F)F)nc1C(C)(C)O [Example 5, (R)-(2-((4-(2-hydroxypropan-2-yl)-5-methyloxazol-2-yl)methyl)piperidin-1-yl)(2-(2,2,2-trifluoroethoxy)pyridin-3-yl)methanone]",162,19,
"Cc1oc(C[C@H]2CCCCN2C(=O)c2ccccc2CC(F)(F)F)nc1C(C)(C)O [Example 18, (R)-(2-((4-(2-hydroxypropan-2-yl)-5-methyloxazol-2-yl)methyl)piperidin-1-yl)(2-(2,2,2-trifluoroethyl)phenyl)-methanone]",1690,118,
"Cc1oc(C[C@H]2CCCCN2C(=O)c2ccccc2-c2ncccn2)nc1C(C)(C)O [Example 31, (R)-(2-((4-(2-hydroxypropan-2-yl)-5-methyloxazol-2-yl)methyl)piperidin-1-yl)(2-(pyrimidin-2-yl)phenyl)methanone]",76,47,
"Cc1ccc(-n2nccn2)c(C(=O)N2CCCC[C@@H]2Cc2nc(C(C)(C)O)c(C)o2)c1 [Example 30, (R)-(2-((4-(2-hydroxypropan-2-yl)-5-methyloxazol-2-yl)methyl)piperidin-1-yl)(5-methyl-2-(2H-1,2,3-triazol-2-yl)phenyl)methanone]",50,46,
"Cc1oc(C[C@H]2CCCCN2C(=O)c2ncccc2-n2nccn2)nc1C(C)(C)O [Example 21, (R)-(3-(2H-1,2,3-triazol-2-yl)pyridin-2-yl)(2-((4-(2-hydroxypropan-2-yl)-5-methyloxazol-2-yl)methyl)piperidin-1-yl)methanone]",1850,225,
"Cc1oc(C[C@H]2CCCCN2C(=O)c2ccccc2C2CC2)nc1C(C)(C)O [Example 3, (R)-(2-cyclopropylphenyl)(2-((4-(2-hydroxypropan-2-yl)-5-methyloxazol-2-yl)methyl)piperidin-1-yl)methanone]",,17,212
"Cc1oc(C[C@H]2CCCCN2C(=O)c2ccccc2C2CC2(F)F)nc1C(C)(C)O (stereo partly drawn) [Example 27, (2-(2,2-difluorocyclopropyl)phenyl)((R)-2-((4-(2-hydroxypropan-2-yl)-5-methyloxazol-2-yl)methyl)piperidin-1-yl)methanone]",473,38,
"Cc1oc(C[C@H]2CCCCN2C(=O)c2ccccc2C2CCC2)nc1C(C)(C)O [Example 24, (R)-(2-cyclobutylphenyl)(2-((4-(2-hydroxypropan-2-yl)-5-methyloxazol-2-yl)methyl)piperidin-1-yl)methanone]",184,114,

# From patent US9920038B2, “Methyl oxazole orexin receptor antagonists” (MERCK SHARP & DOHME CORP., priority 2014, dated 2018)
